# Key:
# Assay type in all cases: cell-based, human
# [1] = system: adherent MCF7 cells; experiment: Drug induced cell death in adherent MCF7 cells (FIG. 8); settings: 5 μM MitoVES, 50 μM α-TOS or 10 μM parthenolide
# Description: (§1) Adherent MCF7 cells and the corresponding mammosphere cells (MS) were cultured and assessed for morphological changes by microscopy (A) and for expression levels of markers as indicators of “sternness” by RT-PCR (B) and flow cytometry (C), including the expression of CD44 and CD24 (D). The adherent MCF7 cells (E) and the MS cells (F) were treated with 5 μM MitoVES, 50 μM α-TOS or 10 μM parthenolide and assessed for their sensitivity to drug induced cell death. […] Adherent MCF7 cells (I) and MS cells (J) were treated for 3 h with α-TOS (50 μM) or MitoVES homologues containing different lengths in the aliphatic side chain (5 μM each, either 11, 7 or 5 carbon chain in length) and the treated cells assessed for production of reactive oxygen species (ROS) by flow cytometry.
# [2] = system: Bax/Bak double knockout Jurkat cell line; experiment: Apoptosis assay of FIG. 3B; settings: α-TOS 50 μM, MitoVES 5 μM
# Description: 3B—Parental, Bax^−/− and […] Jurkat cells were exposed to α-TOS (T) at 50 μM and MitoVES (M) 5 μM, and apoptosis assessed.
# Toxicity of α-TOS, VE11S (“VES”), MitoVE3S, MitoVE5S, MitoVE7S, MitoVE9S, MitoVE11S (“MitoVES”), MitoVE11AE (“MitoVEAE”), MitoVE11F (“MitoVEF”), MitoVE11M (“MitoVEM”), and VES4TPP towards cancer cells was assessed on the basis of IC50, as detailed in Turanek, J., et al. ((2008). Liposomal formulation of vitamin E analogs as an efficient and selective anti-cancer treatment. Clin. Cancer Res. (submitted)). Apoptosis was assessed using the Annexin V method (Weber, T. et al. Mitochondria play a central role in apoptosis induced by α-tocopheryl succinate, an agent with anticancer activity. Comparison with receptor-mediated pro-apoptotic signaling. Biochemistry 42, 4277-4291 (2003)) and dissipation of the mitochondrial inner transmembrane potential was estimated using the polychromatic probe JC-1 (Molecular Probes) (Weber, T. et al. Mitochondria play a central role in apoptosis induced by α-tocopheryl succinate, an agent with anticancer activity. Comparison with receptor-mediated pro-apoptotic signaling. Biochemistry 42, 4277-4291 (2003)).
# [3] = system: adherent MCF7 cells; experiment: ROS production by flow cytometry, adherent cells (FIG. 8); settings: 3 h; α-TOS 50 μM, MitoVES homologues 5 μM
# Description: as §1
# Cellular ROS were detected indirectly by flow cytometry and directly by electron paramagnetic resonance (EPR) spectroscopy, following treatment of cells with α-TOS as indicated in the Legend to Figures. […] For indirect evaluation, cells were treated with α-TOS and reacted with dihydrodichlorofluorescein diacetate (DCF; Molecular Probes) for 30 min, and scored by flow cytometry for cells with high fluorescence, which was evaluated on the bases on increase in mean fluorescence intensity. […]
Structure (SMILES),sensitivity of adherent MCF7 cells to drug induced cell death [1],apoptosis in Bax/Bak double deficient Jurkat cells [2],ROS production in adherent MCF7 cells [3]
"Cc1c(C)c2c(c(C)c1OC(=O)CCC(=O)O)CC[C@@](C)(CCC[C@H](C)CCC[C@H](C)CCCC(C)C)O2 [α-TOS, α-tocopheryl succinate, reference compound]",sensitive to killing,still mediates some level of killing,significant production of ROS
Cc1c(C)c2c(c(C)c1OC(=O)CCC(=O)[O-])CCC(C)(CCCCCCCCCCC[P+](c1ccccc1)(c1ccccc1)c1ccccc1)O2 (stereo not drawn) [MitoVE11S],more so,extremely resistant,greater ROS accumulation
